From ChEMBL document CHEMBL1201862, “PubChem BioAssay data set” (2004)
Active and inactive are the calls of the source.

What was measured:
Aminopeptidase N = biological target: T1, Aminopeptidase N (Plasmodium falciparum FcB1/Columbia, UniProt O96935); test: malaria alanyl aminopeptidase activity blockers – biochemical, fluorogenic H-Leu-NHMec substrate, 1536-well (AID 1445); set-up: species or system Plasmodium falciparum 3D7, 3D7
T1 sequence (O96935 whole entry): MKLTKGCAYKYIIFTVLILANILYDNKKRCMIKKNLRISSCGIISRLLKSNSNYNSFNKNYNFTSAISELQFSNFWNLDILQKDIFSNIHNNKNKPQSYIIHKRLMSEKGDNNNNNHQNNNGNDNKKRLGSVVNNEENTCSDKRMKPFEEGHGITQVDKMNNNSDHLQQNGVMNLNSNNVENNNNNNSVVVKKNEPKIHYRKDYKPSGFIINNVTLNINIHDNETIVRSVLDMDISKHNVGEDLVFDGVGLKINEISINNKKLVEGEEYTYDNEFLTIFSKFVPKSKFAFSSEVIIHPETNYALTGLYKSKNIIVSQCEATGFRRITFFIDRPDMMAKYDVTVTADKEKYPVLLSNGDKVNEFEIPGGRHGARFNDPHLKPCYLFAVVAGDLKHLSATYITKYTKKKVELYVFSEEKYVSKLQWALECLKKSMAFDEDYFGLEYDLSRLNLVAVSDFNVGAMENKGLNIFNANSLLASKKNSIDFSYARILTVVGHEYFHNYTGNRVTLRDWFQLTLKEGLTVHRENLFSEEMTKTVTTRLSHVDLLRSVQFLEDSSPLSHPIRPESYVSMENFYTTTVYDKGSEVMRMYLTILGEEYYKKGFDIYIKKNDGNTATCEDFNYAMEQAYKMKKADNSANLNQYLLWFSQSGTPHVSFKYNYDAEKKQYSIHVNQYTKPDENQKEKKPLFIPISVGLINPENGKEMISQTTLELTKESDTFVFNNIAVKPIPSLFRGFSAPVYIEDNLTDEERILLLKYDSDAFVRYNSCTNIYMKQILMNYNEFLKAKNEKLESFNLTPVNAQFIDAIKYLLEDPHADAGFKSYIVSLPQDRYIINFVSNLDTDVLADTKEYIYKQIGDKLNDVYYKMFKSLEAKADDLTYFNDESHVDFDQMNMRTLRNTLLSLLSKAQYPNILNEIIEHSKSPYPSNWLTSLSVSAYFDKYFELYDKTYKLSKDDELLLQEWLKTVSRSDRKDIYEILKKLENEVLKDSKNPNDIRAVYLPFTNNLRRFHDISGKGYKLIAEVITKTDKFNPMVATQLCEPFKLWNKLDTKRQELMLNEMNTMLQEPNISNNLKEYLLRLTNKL

[1] = biological target: T2, High affinity choline transporter 1 (Homo sapiens, UniProt Q9GZV3); test: human choline transporter blockers, potency – cell-based, 5-point CRC, membrane potential dye, dose response (AID 504840); type: functional
T2 sequence (Q9GZV3 whole entry): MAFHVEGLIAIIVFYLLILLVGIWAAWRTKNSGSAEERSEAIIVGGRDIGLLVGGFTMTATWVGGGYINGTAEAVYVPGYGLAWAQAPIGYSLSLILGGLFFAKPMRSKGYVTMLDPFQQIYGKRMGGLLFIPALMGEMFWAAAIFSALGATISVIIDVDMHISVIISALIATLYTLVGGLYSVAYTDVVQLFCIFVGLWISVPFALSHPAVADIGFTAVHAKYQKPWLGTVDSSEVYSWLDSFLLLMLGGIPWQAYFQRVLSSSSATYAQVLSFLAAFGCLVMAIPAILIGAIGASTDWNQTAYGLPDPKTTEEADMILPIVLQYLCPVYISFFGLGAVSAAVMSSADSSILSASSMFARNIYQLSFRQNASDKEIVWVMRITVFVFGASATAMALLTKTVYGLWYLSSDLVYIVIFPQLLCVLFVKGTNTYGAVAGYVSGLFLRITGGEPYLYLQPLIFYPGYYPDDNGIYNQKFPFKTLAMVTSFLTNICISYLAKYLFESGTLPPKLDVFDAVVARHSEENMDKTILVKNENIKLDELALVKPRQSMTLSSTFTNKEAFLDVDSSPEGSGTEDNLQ

[2] = Trypanosoma cruzi growth suppression in host cells – NIH3T3 host cells, beta-gal luminescence, confirmation (AID 2044); type: functional, cell-based;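 also: intracellular parasites grown in NIH/3T3 mouse fibroblasts as host cells; luminescent beta-galactosidase reporter signal from transgenic T. cruzi replicating inside host cells; inhibitors lower the luminescence signal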
[3] = NIH3T3 cell viability loss – ATP luminescence, mouse fibroblasts, counter-screen, dose response (AID 2010); type: functional, cell-based;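 also: cells exposed to compound for about 90 hours before reading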
[4] = biological target: T3, Ubiquitin-conjugating enzyme E2 N (Homo sapiens, UniProt P61088); type: functional;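 also: Dose-response confirmation in a TR-FRET assay detecting UBC13-driven polyubiquitin chain formation, inhibition measured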
T3 sequence (P61088 whole entry): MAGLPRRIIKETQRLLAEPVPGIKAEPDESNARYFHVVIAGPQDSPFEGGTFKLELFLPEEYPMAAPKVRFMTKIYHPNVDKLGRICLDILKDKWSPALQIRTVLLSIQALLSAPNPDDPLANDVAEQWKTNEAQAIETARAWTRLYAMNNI

[5] = biological target: T4, DNA repair protein RAD52 homolog (Homo sapiens, UniProt P43351); type: functional, biochemical
T4 sequence (P43351 whole entry): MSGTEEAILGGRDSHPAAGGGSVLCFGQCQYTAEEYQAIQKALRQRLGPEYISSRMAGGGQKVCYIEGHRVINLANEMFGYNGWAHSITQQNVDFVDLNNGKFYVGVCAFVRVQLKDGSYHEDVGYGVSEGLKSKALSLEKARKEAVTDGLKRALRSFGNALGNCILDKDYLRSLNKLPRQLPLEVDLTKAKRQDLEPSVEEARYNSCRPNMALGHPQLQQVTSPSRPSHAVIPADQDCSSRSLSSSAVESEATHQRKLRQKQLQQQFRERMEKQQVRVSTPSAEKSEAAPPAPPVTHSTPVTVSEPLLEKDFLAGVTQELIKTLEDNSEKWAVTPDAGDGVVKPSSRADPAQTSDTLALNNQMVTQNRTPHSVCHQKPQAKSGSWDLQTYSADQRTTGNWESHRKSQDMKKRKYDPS

[6] = Fluorescence-based cell-based high throughput dose response assay for inhibitors of the interaction of nucleotide-binding oligomerization domain containing 2 (NOD2) and the receptor-interacting serine-threonine kinase 2 (RIPK2).; type: functional; conditions: Homo sapiens
Paired box protein Pax-8 = Paired box protein Pax-8 (Homo sapiens, UniProt Q06710); test: PAX8 transcriptional activity inhibition in RMG-I – RMG-I cells, luciferase, cherry-pick, dose response (AID 687027); type: functional, cell-based;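 also: luciferase reporter driven by Pax8 target thyroperoxidase promoter measured by SteadyGlo luminescence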
[7] = tested on: Streptococcus sp. 'group A'; test: Streptococcus pyogenes SK(-)GAS viability under kanamycin – luminescence, BacTiterGlo, confirmation, counter-screen for streptokinase expression inhibitor project, dose response (AID 1900); type: functional, organism-based
Streptococcus = test: GAS UMAA2166 growth inhibition – luminescence, BacTiterGlo, counter-screen for streptokinase expression inhibitor project, dose response (AID 1915); type: functional, organism-based;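 also: potency for reduction of bacterial viability or growth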
[8] = biological target: T5, Short transient receptor potential channel 4 (Mus musculus, UniProt Q9QUQ5); test: calcium entry via TRPC4 opening agents – cell-based, HEK293 TRPC4/mu-opioid, Fluo-4 calcium, dose response (AID 434937); type: functional
T5 sequence (Q9QUQ5 whole entry): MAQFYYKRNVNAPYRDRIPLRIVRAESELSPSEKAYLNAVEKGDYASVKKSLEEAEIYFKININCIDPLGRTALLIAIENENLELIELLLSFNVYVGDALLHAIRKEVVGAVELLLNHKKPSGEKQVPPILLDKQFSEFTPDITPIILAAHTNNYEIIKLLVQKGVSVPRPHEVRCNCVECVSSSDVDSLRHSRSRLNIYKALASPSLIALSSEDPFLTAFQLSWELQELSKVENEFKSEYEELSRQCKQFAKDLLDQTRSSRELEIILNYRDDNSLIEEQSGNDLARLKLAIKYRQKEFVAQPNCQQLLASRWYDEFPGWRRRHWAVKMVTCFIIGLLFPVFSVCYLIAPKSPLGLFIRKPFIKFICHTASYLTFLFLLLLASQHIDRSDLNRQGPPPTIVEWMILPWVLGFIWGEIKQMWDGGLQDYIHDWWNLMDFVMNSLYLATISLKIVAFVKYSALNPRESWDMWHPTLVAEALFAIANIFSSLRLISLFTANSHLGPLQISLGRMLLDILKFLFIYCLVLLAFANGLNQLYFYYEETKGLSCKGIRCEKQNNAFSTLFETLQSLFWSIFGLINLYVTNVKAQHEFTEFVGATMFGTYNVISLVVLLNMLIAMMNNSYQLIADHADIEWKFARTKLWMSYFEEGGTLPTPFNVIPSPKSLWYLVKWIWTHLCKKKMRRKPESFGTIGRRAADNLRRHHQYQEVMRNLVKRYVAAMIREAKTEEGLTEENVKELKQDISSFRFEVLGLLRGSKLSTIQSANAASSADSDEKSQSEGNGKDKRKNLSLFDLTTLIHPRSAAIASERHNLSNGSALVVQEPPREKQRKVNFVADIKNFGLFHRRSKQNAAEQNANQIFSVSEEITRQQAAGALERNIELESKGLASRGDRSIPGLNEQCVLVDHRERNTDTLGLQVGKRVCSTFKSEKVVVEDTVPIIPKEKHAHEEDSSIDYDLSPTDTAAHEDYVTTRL

[9] = blockers of HIV-1 ZM109 envelope-driven cell-cell fusion – HeLa effector, CEM target cells, luciferase, cherry-pick, dose response (AID 652058); type: functional, cell-based;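 also: luciferase signal from HIV-1 Env mediated cell-cell fusion of effector and target cells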
[10] = HIV-1 AD8 envelope cell-cell fusion blockers – cherry-pick, dose response (AID 652062); type: functional, cell-based;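 also: luciferase signal from cell-cell fusion driven by HIV-1 clade B AD8 Env; potency is for inhibitors of fusion seen as a drop in luminescence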
[11] = biological target: T6, Polyadenylate-binding protein 1 (Homo sapiens, UniProt P11940); test: MLLE binding blockers, Cy5 peptide tracer – biochemical, fluorescence polarization, Cy5-PAM2 peptide, secondary, miRNA deadenylation inhibitor project, dose response (AID 602260); type: functional; conditions: read-out: IC50_Mean
[12] = biological target: T6, Polyadenylate-binding protein 1; test: MLLE domain peptide-binding blockers, IC50 – biochemical, fluorescence polarization, FITC-PAM2 peptide, dose response (AID 602259); type: functional; conditions: read-out: IC50_Mean
[13] = NIH-3T3 fibroblast cytotoxicity, dose response, cytotoxicity control, cell-based, fluorescence, Alamar Blue, secondary assay (AID 2327); type: functional;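 also: NIH-3T3 mouse fibroblasts cultured with fluconazole at 8 µg/mL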
[14] = fluconazole-exposed Candida albicans growth modulators – fluorescence, retest, confirmation (AID 2467); type: functional, cell-based

T6 sequence (P11940 whole entry, the tested form may be a part): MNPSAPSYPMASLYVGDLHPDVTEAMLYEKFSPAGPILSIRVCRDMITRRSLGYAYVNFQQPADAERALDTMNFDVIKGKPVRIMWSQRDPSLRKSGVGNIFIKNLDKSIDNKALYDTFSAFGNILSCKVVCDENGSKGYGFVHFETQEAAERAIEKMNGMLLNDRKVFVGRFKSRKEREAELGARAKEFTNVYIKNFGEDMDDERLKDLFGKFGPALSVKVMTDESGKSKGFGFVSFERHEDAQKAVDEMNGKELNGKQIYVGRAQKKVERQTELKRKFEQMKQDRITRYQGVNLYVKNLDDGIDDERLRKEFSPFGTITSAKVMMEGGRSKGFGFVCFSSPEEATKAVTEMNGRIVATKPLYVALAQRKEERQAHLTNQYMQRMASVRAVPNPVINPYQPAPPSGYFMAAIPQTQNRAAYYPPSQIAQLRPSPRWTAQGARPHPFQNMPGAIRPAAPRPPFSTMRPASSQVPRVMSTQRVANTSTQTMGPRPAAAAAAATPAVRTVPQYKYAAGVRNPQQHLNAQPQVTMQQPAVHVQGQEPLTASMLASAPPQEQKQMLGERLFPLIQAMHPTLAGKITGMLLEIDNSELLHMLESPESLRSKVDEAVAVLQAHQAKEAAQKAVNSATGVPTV
Chain of Paired box protein Pax-8 (Q06710 whole entry): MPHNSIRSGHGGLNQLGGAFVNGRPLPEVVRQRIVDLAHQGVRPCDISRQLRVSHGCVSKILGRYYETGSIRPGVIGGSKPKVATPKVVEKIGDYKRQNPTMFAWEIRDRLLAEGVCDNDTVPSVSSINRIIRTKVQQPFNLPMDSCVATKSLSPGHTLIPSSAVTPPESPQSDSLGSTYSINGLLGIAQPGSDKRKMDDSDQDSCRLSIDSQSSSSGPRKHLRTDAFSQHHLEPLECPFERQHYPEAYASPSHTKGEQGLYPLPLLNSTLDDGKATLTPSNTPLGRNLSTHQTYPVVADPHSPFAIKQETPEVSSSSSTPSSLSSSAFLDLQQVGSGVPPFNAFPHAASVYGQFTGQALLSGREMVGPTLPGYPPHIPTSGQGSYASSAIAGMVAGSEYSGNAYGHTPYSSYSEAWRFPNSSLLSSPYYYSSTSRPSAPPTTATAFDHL

Cc1nn2c(N3CCN(C)CC3)c3c(nc2c1-c1ccccc1)CCCC3
IC50 (Aminopeptidase N): 61.7 µM (active)
IC50 [1]: 10.1 µM (active)

COc1cccc(OCC(O)CN2CCN(CCN3C(=O)c4cccc5cccc(c45)C3=O)CC2)c1 (configuration not stated)
EC50 [2]: 1.59 µM (active)
EC50 [3]: > 60 µM (inconclusive)
IC50 [4]: > 20 µM (inactive)
AC50 [5]: 18.2 µM (active)

C=CC(=O)N1C/C(=C/c2ccc(Cl)cc2)C(=O)/C(=C\c2ccc(Cl)cc2)C1
IC50 [6]: 2.58 µM (active)
AC50 (Paired box protein Pax-8): 1.82 µM (active)

CNC12CCc3cc(OC)c(OC)c(c31)-c1cc3c(cc1C2)OCO3 (configuration not stated)
AC50 [5]: 9.25 µM (active)

Cc1onc(-c2ccccc2)c1C(=O)NC(=S)NNC(=O)c1ccco1
EC50 [7]: 2.79 µM (active)
EC50 (Streptococcus): 10.6 µM (active)
EC50 [8]: 10.6 µM (active)
IC50 [1]: 15.8 µM (active)

CC(=O)C1=C(C)NC(=S)NC1c1ccccc1 (configuration not stated)
AC50 [9]: 27 µM (active)
AC50 [10]: 45 µM (active)

O=C(CSc1ccc2c(c1)OCCO2)NCCc1ccc(Cl)cc1Cl
IC50 [11]: > 66 µM (inactive)
IC50 [12]: > 66 µM (inactive)

CCOC(=O)c1c(C)n(-c2ccc(C)cc2)c2ccc(OCC(O)CNCCCO)cc12 (configuration not stated)
IC50 [4]: > 20 µM (inactive)
AC50 [5]: 6.8 µM (active)

O=C1NC(=O)/C(=C/c2cccc3ccccc23)S1
EC50 [13]: > 160 µM (inactive)
EC50 [14]: 0.76 µM (active)
IC50 [1]: 11 µM (active)

C#CC[N+]1(CC#Cc2cccc(C)c2)CCCCC1
IC50 [1]: 12 µM (active)

Cc1ccc(CN(C)C(=O)COC(=O)CSc2ccc([N+](=O)[O-])cc2)cc1
IC50 [11]: > 66 µM (inactive)
IC50 [12]: > 66 µM (inactive)

CC(=O)NCC/N=C(\C)c1sc2ccccc2c1O
IC50 [11]: > 66 µM (inactive)
IC50 [12]: > 66 µM (inactive)
